# According to patent publication US20080063668A1, “Nitroimidazole and terconazole composition and method” (priority 2006, published 2008):
# What was measured:
# Experiment in all cases: Inhibition of bacteria growth, drug dilution tubes, anaerobic
# Type in all cases: cell-based
# [1] = test system: Mobiluncus curtisii var. curtisii ATCC 35241; set-up: key: (+) for growth; (−) for no growth; (±) for suboptimal growth after an initial observation of growth
# [2] = test system: Mobiluncus mulieris ATCC 35243; set-up: key to growth: (+) for growth; (−) for no growth; (±) for suboptimal growth after an initial observation of growth
# Protocol: (§1) Serial dilutions of tinidazole and terconazole were prepared by adding measured amounts of each substance to water (both individually and in combination). Seven bacterial organisms that are common pathogens in bacterial vaginosis were grown anaerobically in the medium as listed in Table 4 under a N2/H2/CO2 (85:5:10) head space atmosphere. [table] These cultures were diluted to a 0.5 McFarland standard prior to inoculation of drug dilution tubes. One (1) mL of the 0.5 McFarland preparation was inoculated to an anaerobically prepared test tube containing 0.8 mL of Difco anaerobic medium (DAMM) and 0.2 mL of appropriate diluted antimicrobial or antimicrobial combination for a total of 2 mL. The inoculated tubes were then incubated at 37° C. and monitored daily for growth. Growth was scored with a (+) for growth, (−) for no growth, and (±) for suboptimal growth after an initial observation of growth. Tinidazole is abbreviated as TNZ and terconazole is abbreviated as TER in Tables 5 through 11.
# [3] = test system: Gardnerella vaginalis ATCC 14019; set-up: key to growth: (+) for growth; (−) for no growth; (±) for suboptimal growth after an initial observation of growth
# Protocol: as §1
compound,measurement,setting,value
"CCS(=O)(=O)CCn1c([N+](=O)[O-])cnc1C [TNZ, 1-[2-(ethylsulfonyl)ethyl]-2-methyl-5-nitroimidazole]",growth,"[1]; TNZ 2 μg/ml, DAY 1",(+)
same,growth,"[1]; TNZ 2 μg/ml, DAY 2",(+)
same,growth,"[1]; TNZ 2 μg/ml, DAY 3",(+)
same,growth,"[1]; TNZ 2 μg/ml, DAY 4",(+)
same,growth,"[1]; TNZ 2 μg/ml, DAY 5",(+)
same,growth,"[1]; TNZ 3.9 μg/ml, DAY 1",(+)
same,growth,"[1]; TNZ 3.9 μg/ml, DAY 2",(+)
same,growth,"[1]; TNZ 3.9 μg/ml, DAY 3",(+)
same,growth,"[1]; TNZ 3.9 μg/ml, DAY 4",(+)
same,growth,"[1]; TNZ 3.9 μg/ml, DAY 5",(+)
same,growth,"[1]; TNZ 7.8 μg/ml, DAY 1",(+)
same,growth,"[1]; TNZ 7.8 μg/ml, DAY 2",(+)
same,growth,"[1]; TNZ 7.8 μg/ml, DAY 3",(+)
same,growth,"[1]; TNZ 7.8 μg/ml, DAY 4",(+)
same,growth,"[1]; TNZ 7.8 μg/ml, DAY 5",(+)
same,growth,"[1]; TNZ 15.6 μg/ml, DAY 1",(+)
same,growth,"[1]; TNZ 15.6 μg/ml, DAY 2",(+)
same,growth,"[1]; TNZ 15.6 μg/ml, DAY 3",(+)
same,growth,"[1]; TNZ 15.6 μg/ml, DAY 4",(+)
same,growth,"[1]; TNZ 15.6 μg/ml, DAY 5",(+)
same,growth,"[1]; TNZ 31.3 μg/ml, DAY 1",(+)
same,growth,"[1]; TNZ 31.3 μg/ml, DAY 2",(+)
same,growth,"[1]; TNZ 31.3 μg/ml, DAY 3",(+)
same,growth,"[1]; TNZ 31.3 μg/ml, DAY 4",(+)
same,growth,"[1]; TNZ 31.3 μg/ml, DAY 5",(+)
same,growth,"[1]; TNZ 62.5 μg/ml, DAY 1",(+)
same,growth,"[1]; TNZ 62.5 μg/ml, DAY 2",(+)
same,growth,"[1]; TNZ 62.5 μg/ml, DAY 3",(+)
same,growth,"[1]; TNZ 62.5 μg/ml, DAY 4",(+)
same,growth,"[1]; TNZ 62.5 μg/ml, DAY 5",(+)
same,growth,"[1]; TNZ 125 μg/ml, DAY 1",(+)
same,growth,"[1]; TNZ 125 μg/ml, DAY 2",(+)
same,growth,"[1]; TNZ 125 μg/ml, DAY 3",(+)
same,growth,"[1]; TNZ 125 μg/ml, DAY 4",(+)
same,growth,"[1]; TNZ 125 μg/ml, DAY 5",(+)
same,growth,"[1]; TNZ 250 μg/ml, DAY 1",(−)
same,growth,"[1]; TNZ 250 μg/ml, DAY 2",(+)
same,growth,"[1]; TNZ 250 μg/ml, DAY 3",(+)
same,growth,"[1]; TNZ 250 μg/ml, DAY 4",(+)
same,growth,"[1]; TNZ 250 μg/ml, DAY 5",(+)
same,growth,"[1]; TNZ 500 μg/ml, DAY 1",(−)
same,growth,"[1]; TNZ 500 μg/ml, DAY 2",(−)
same,growth,"[1]; TNZ 500 μg/ml, DAY 3",(−)
same,growth,"[1]; TNZ 500 μg/ml, DAY 4",(−)
same,growth,"[1]; TNZ 500 μg/ml, DAY 5",(+)
same,growth,"[2]; TNZ 2 μg/ml, DAY 1",(+)
same,growth,"[2]; TNZ 2 μg/ml, DAY 2",(+)
same,growth,"[2]; TNZ 2 μg/ml, DAY 3",(+)
same,growth,"[2]; TNZ 2 μg/ml, DAY 4",(+)
same,growth,"[2]; TNZ 2 μg/ml, DAY 5",(+)
same,growth,"[2]; TNZ 3.9 μg/ml, DAY 1",(+)
same,growth,"[2]; TNZ 3.9 μg/ml, DAY 2",(+)
same,growth,"[2]; TNZ 3.9 μg/ml, DAY 3",(+)
same,growth,"[2]; TNZ 3.9 μg/ml, DAY 4",(+)
same,growth,"[2]; TNZ 3.9 μg/ml, DAY 5",(+)
same,growth,"[2]; TNZ 7.8 μg/ml, DAY 1",(+)
same,growth,"[2]; TNZ 7.8 μg/ml, DAY 2",(+)
same,growth,"[2]; TNZ 7.8 μg/ml, DAY 3",(+)
same,growth,"[2]; TNZ 7.8 μg/ml, DAY 4",(+)
same,growth,"[2]; TNZ 7.8 μg/ml, DAY 5",(+)
same,growth,"[2]; TNZ 15.6 μg/ml, DAY 1",(−)
same,growth,"[2]; TNZ 15.6 μg/ml, DAY 2",(−)
same,growth,"[2]; TNZ 15.6 μg/ml, DAY 3",(−)
same,growth,"[2]; TNZ 15.6 μg/ml, DAY 4",(+)
same,growth,"[2]; TNZ 15.6 μg/ml, DAY 5",(+)
same,growth,"[2]; TNZ 31.3 μg/ml, DAY 1",(−)
same,growth,"[2]; TNZ 31.3 μg/ml, DAY 2",(−)
same,growth,"[2]; TNZ 31.3 μg/ml, DAY 3",(−)
same,growth,"[2]; TNZ 31.3 μg/ml, DAY 4",(+)
same,growth,"[2]; TNZ 31.3 μg/ml, DAY 5",(+)
same,growth,"[2]; TNZ 62.5 μg/ml, DAY 1",(−)
same,growth,"[2]; TNZ 62.5 μg/ml, DAY 2",(−)
same,growth,"[2]; TNZ 62.5 μg/ml, DAY 3",(−)
same,growth,"[2]; TNZ 62.5 μg/ml, DAY 4",(−)
same,growth,"[2]; TNZ 62.5 μg/ml, DAY 5",(−)
same,growth,"[2]; TNZ 125 μg/ml, DAY 1",(−)
same,growth,"[2]; TNZ 125 μg/ml, DAY 2",(−)
same,growth,"[2]; TNZ 125 μg/ml, DAY 3",(−)
same,growth,"[2]; TNZ 125 μg/ml, DAY 4",(−)
same,growth,"[2]; TNZ 125 μg/ml, DAY 5",(−)
same,growth,"[2]; TNZ 250 μg/ml, DAY 1",(−)
same,growth,"[2]; TNZ 250 μg/ml, DAY 2",(−)
same,growth,"[2]; TNZ 250 μg/ml, DAY 3",(−)
same,growth,"[2]; TNZ 250 μg/ml, DAY 4",(−)
same,growth,"[2]; TNZ 250 μg/ml, DAY 5",(−)
same,growth,"[2]; TNZ 500 μg/ml, DAY 1",(−)
same,growth,"[2]; TNZ 500 μg/ml, DAY 2",(−)
same,growth,"[2]; TNZ 500 μg/ml, DAY 3",(−)
same,growth,"[2]; TNZ 500 μg/ml, DAY 4",(−)
same,growth,"[2]; TNZ 500 μg/ml, DAY 5",(−)
same,growth,"[3]; TNZ 2 μg/ml, DAY 1",(+)
same,growth,"[3]; TNZ 2 μg/ml, DAY 2",(+)
same,growth,"[3]; TNZ 2 μg/ml, DAY 3",(+)
same,growth,"[3]; TNZ 2 μg/ml, DAY 4",(+)
same,growth,"[3]; TNZ 2 μg/ml, DAY 5",(+)
same,growth,"[3]; TNZ 3.9 μg/ml, DAY 1",(+)
same,growth,"[3]; TNZ 3.9 μg/ml, DAY 2",(+)
same,growth,"[3]; TNZ 3.9 μg/ml, DAY 3",(+)
same,growth,"[3]; TNZ 3.9 μg/ml, DAY 4",(+)
same,growth,"[3]; TNZ 3.9 μg/ml, DAY 5",(+)
same,growth,"[3]; TNZ 7.8 μg/ml, DAY 1",(+)
same,growth,"[3]; TNZ 7.8 μg/ml, DAY 2",(+)
same,growth,"[3]; TNZ 7.8 μg/ml, DAY 3",(+)
same,growth,"[3]; TNZ 7.8 μg/ml, DAY 4",(+)
same,growth,"[3]; TNZ 7.8 μg/ml, DAY 5",(+)
same,growth,"[3]; TNZ 15.6 μg/ml, DAY 1",(+)
same,growth,"[3]; TNZ 15.6 μg/ml, DAY 2",(+)
same,growth,"[3]; TNZ 15.6 μg/ml, DAY 3",(+)
same,growth,"[3]; TNZ 15.6 μg/ml, DAY 4",(+)
same,growth,"[3]; TNZ 15.6 μg/ml, DAY 5",(+)
same,growth,"[3]; TNZ 31.3 μg/ml, DAY 1",(+)
same,growth,"[3]; TNZ 31.3 μg/ml, DAY 2",(+)
same,growth,"[3]; TNZ 31.3 μg/ml, DAY 3",(+)
same,growth,"[3]; TNZ 31.3 μg/ml, DAY 4",(+)
same,growth,"[3]; TNZ 31.3 μg/ml, DAY 5",(+)
same,growth,"[3]; TNZ 62.5 μg/ml, DAY 1",(+)
same,growth,"[3]; TNZ 62.5 μg/ml, DAY 2",(+)
same,growth,"[3]; TNZ 62.5 μg/ml, DAY 3",(+)
same,growth,"[3]; TNZ 62.5 μg/ml, DAY 4",(+)
same,growth,"[3]; TNZ 62.5 μg/ml, DAY 5",(+)
same,growth,"[3]; TNZ 125 μg/ml, DAY 1",(+)
same,growth,"[3]; TNZ 125 μg/ml, DAY 2",(+)
same,growth,"[3]; TNZ 125 μg/ml, DAY 3",(+)
same,growth,"[3]; TNZ 125 μg/ml, DAY 4",(+)
same,growth,"[3]; TNZ 125 μg/ml, DAY 5",(+)
same,growth,"[3]; TNZ 250 μg/ml, DAY 1",(+)
same,growth,"[3]; TNZ 250 μg/ml, DAY 2",(+)
same,growth,"[3]; TNZ 250 μg/ml, DAY 3",(+)
same,growth,"[3]; TNZ 250 μg/ml, DAY 4",(+)
same,growth,"[3]; TNZ 250 μg/ml, DAY 5",(+)
same,growth,"[3]; TNZ 500 μg/ml, DAY 1",(+)
same,growth,"[3]; TNZ 500 μg/ml, DAY 2",(+)
same,growth,"[3]; TNZ 500 μg/ml, DAY 3",(+)
same,growth,"[3]; TNZ 500 μg/ml, DAY 4",(+)
same,growth,"[3]; TNZ 500 μg/ml, DAY 5",(+)
